According to ChEMBL document CHEMBL1123890, “Combined analgesic/neuroleptic activity in N-butyrophenone prodine-like compounds” (J Med Chem, 1987):
pIC50: −log10 of the molar value. Calls of active or inactive are those of the source. No cut-off for these calls is given here.

What was measured:
D(2) dopamine receptor = D(2) dopamine receptor (Rattus norvegicus, UniProt P61169); assay: Ability to inhibit the specific binding of [3H]- spiroperidol to Dopamine receptor D2 in rat striatal membrane preparation by 50%; format: cell membranes, Striatum
Rattus norvegicus = species: Rattus norvegicus; assay: The dose required to reduce the number of apomorphine induced rotation by 50% in rats with monolateral lesion of nigrostriatal tracts; format: functional; details: Nigrostriatal tract
Mus musculus [1] = assay: In vivo analgesic activity in mice after subcutaneous administration by hot plate assay method; inactive at 25 mg; format: functional, organism-based
Opioid receptor = Opioid receptor (Rattus norvegicus, UniProt P33533+P34975+P33535); assay: Ability to inhibit the specific binding of [3H]- dihydromorphine to opiate receptors in rat brain membrane preparation by 50%; format: cell membranes
D(1A) dopamine receptor = D(1A) dopamine receptor (Rattus norvegicus, UniProt P18901); assay: Inhibitory concentration against rat striatal dopamine (D1) sensitive adenylate cyclase activity; format: functional
Mus musculus [2] = assay: In vivo analgesic activity in mice after subcutaneous administration by hot plate assay method.; format: functional; details: sc
Mus musculus [3] = assay: In vivo analgesic activity in mice after subcutaneous administration by hot plate assay method; format: functional; details: sc

Sequence of D(1A) dopamine receptor (P18901 whole entry): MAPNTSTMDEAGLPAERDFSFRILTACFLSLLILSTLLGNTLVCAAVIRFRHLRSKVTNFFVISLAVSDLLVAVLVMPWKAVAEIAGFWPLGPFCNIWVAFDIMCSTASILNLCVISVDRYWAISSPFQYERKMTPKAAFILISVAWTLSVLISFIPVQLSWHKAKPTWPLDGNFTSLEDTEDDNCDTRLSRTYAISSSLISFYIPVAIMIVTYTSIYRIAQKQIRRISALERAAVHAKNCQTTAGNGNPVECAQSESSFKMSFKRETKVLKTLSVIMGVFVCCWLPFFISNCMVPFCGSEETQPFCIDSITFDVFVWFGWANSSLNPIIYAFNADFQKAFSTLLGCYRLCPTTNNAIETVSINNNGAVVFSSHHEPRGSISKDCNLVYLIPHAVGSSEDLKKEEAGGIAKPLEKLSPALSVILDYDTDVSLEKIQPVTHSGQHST
Sequence of D(2) dopamine receptor (P61169 whole entry): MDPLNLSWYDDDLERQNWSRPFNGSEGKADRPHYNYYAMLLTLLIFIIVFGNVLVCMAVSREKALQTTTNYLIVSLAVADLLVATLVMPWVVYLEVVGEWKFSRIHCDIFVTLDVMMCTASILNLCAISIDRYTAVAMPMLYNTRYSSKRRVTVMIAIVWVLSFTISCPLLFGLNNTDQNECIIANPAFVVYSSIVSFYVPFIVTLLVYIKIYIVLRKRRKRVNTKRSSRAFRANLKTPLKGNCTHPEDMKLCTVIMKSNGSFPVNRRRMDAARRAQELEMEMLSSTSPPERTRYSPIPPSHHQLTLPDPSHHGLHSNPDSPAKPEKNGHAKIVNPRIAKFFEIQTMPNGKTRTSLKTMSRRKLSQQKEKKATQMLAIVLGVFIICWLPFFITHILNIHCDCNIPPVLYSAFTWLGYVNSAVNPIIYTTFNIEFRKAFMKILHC

O=C(CCCN1CCC(O)CC1)c1ccc(F)cc1
pIC50 (D(2) dopamine receptor): < 5.30
ED50 (Rattus norvegicus): 5.84 mg/kg
ED50 (Mus musculus [1]): inactive
IC50 (Opioid receptor): 5500 nM

O=C(CCCN1CCC(c2ccccc2)CC1)c1ccc(F)cc1
pIC50 (D(2) dopamine receptor): 7.16
pIC50 (D(1A) dopamine receptor): 5.12
ED50 (Rattus norvegicus): 1.31 mg/kg
IC50 (Opioid receptor): > 10000 nM
ED50 (Mus musculus [2]): 5 mg/kg

CCC(=O)OC1(c2ccccc2)CCN(CCCC(=O)c2ccc(F)cc2)CC1
pIC50 (D(2) dopamine receptor): 7.54
pIC50 (D(1A) dopamine receptor): 5.62
ED50 (Rattus norvegicus): 0.2 mg/kg
IC50 (Opioid receptor): 2.96 nM
ED50 (Mus musculus [3]): 0.32 mg/kg

CCC(=O)OC1CCN(CCCC(=O)c2ccc(F)cc2)CC1
pIC50 (D(2) dopamine receptor): < 4.30
ED50 (Rattus norvegicus): 4.82 mg/kg
IC50 (Opioid receptor): 598 nM

CCC(=O)OC1(c2ccccc2)CCN(CCCC(=O)c2ccc(F)cc2)C[C@@H]1C (some centres not stated)
pIC50 (D(2) dopamine receptor): 7.47
pIC50 (D(1A) dopamine receptor): 5.59
ED50 (Rattus norvegicus): 0.22 mg/kg
IC50 (Opioid receptor): 3.33 nM
ED50 (Mus musculus [3]): 0.23 mg/kg

C[C@@H]1CN(CCCC(=O)c2ccc(F)cc2)CCC1(O)c1ccccc1 (some centres not stated)
pIC50 (D(1A) dopamine receptor): 5.58
ED50 (Rattus norvegicus): 0.93 mg/kg
IC50 (Opioid receptor): > 10000 nM
ED50 (Mus musculus [2]): > 5 mg/kg

CCC(=O)OC1(c2ccccc2)CCN(CCCC(=O)c2ccc(F)cc2)C[C@H]1C (some centres not stated)
pIC50 (D(2) dopamine receptor): 7.33
pIC50 (D(1A) dopamine receptor): 5.49
ED50 (Rattus norvegicus): 1.59 mg/kg
IC50 (Opioid receptor): 8.67 nM
ED50 (Mus musculus [3]): 0.65 mg/kg

O=C(CCCN1CCC(O)(c2ccccc2)CC1)c1ccc(F)cc1
pIC50 (D(2) dopamine receptor): 7.33
pIC50 (D(1A) dopamine receptor): 5.55
ED50 (Rattus norvegicus): 0.35 mg/kg
IC50 (Opioid receptor): 3215 nM
ED50 (Mus musculus [2]): > 5 mg/kg

CN1CCc2cccc3c2[C@H]1Cc1ccc(O)c(O)c1-3 [APOMORPHINE]
IC50 (Opioid receptor): 302 nM

CN1CC[C@]23c4c5ccc(O)c4O[C@H]2[C@@H](O)C=C[C@H]3[C@H]1C5.Cl [MORPHINE HYDROCHLORIDE]
ED50 (Mus musculus [2]): 1.2 mg/kg

C[C@H]1CN(CCCC(=O)c2ccc(F)cc2)CCC1(O)c1ccccc1 (some centres not stated)
pIC50 (D(1A) dopamine receptor): 5.78
ED50 (Rattus norvegicus): 1.54 mg/kg
IC50 (Opioid receptor): > 10000 nM
ED50 (Mus musculus [2]): > 5 mg/kg
